Laboratory results reported in ChEMBL document CHEMBL1129526, “Angular furoquinolinones, psoralen analogs: novel antiproliferative agents for skin diseases. Synthesis, biological activity, mechanism of action, and computer-aided studies” (J Med Chem, 1996).
pIC50: −log10 of the molar value. In brackets after ≈: the same amount, converted by molar mass.

How the values were obtained:
Ehrlich [1] = assay: Compound was tested for the inhibition of DNA synthesis in Ehrlich cells by UV -A Irradiation relative to furoquinolinone; format: functional, Mus musculus
[2] = Surviving fraction was evaluated at concentration 4 uM in T2 phage; format: functional
Ehrlich [3] = assay: Compound was tested for the inhibition of DNA synthesis in Ehrlich cells by incubation in the dark.; format: functional; settings: Mus musculus, read-out: ID50 (the source's name)
Ehrlich [4] = assay: Compound was tested for the inhibition of RNA synthesis in Ehrlich cells by incubation in the dark relative to furoquinolinone; format: functional, Mus musculus
Ehrlich [5] = assay: Compound was tested for the inhibition of DNA synthesis in Ehrlich cells by incubation in the dark relative to furoquinolinone; format: functional, Mus musculus
Ehrlich [6] = assay: Compound was tested for the inhibition of RNA synthesis in Ehrlich cells by UV -A Irradiation; format: functional, Mus musculus
Ehrlich [7] = assay: Compound was tested for the inhibition of RNA synthesis in Ehrlich cells by incubation in the dark.; format: functional; settings: Mus musculus, read-out: ID50 (the source's name)
Ehrlich [8] = assay: Compound was tested for the inhibition of RNA synthesis in Ehrlich cells by UV -A Irradiation relative to furoquinolinone; format: functional, Mus musculus
Ehrlich [9] = assay: Compound was tested for the inhibition of DNA synthesis in Ehrlich cells by UV -A Irradiation; format: functional, Mus musculus
[10] = Surviving fraction was evaluated at concentration 2 uM in T2 phage; format: functional
Bos taurus = species on record: Bos taurus; assay: Association constant of binding of compound with calf thymus DNA was determined by using equilibrium dialysis.; settings: cattle
[11] = Solubility of compound in water; format: physicochemical; settings: for solubility: water, read-out: S
[12] = Partition Coefficient in n-octanol / water medium; format: physicochemical

Cc1oc2c(C)cc3c(C)cc(=O)[nH]c3c2c1C
Relative activity (Ehrlich [1]): 102.6 | Surviving fraction [2]: 0.7 | pIC50 (Ehrlich [3]): 4.60 | Relative activity (Ehrlich [4]): 0.256 | Relative activity (Ehrlich [5]): 0.0926 | Du (Ehrlich [6]): 1.048 | pIC50 (Ehrlich [7]): 5.28 | Relative activity (Ehrlich [8]): 582 | Du (Ehrlich [9]): 1.19

COc1c2occc2cc2ccc(=O)oc12 [METHOXSALEN]
Relative activity (Ehrlich [1]): 1 | Surviving fraction [10]: 0.8 | K (Bos taurus): 736 M⁻¹ | Du (Ehrlich [6]): 0.0018 | Relative activity (Ehrlich [8]): 1 | S ([11]; buffer): 23 mg/mL | Du (Ehrlich [9]): 0.0116

Cc1cc2c(o1)c(C)cc1c(C)cc(=O)oc12
Relative activity (Ehrlich [1]): 4.14 | Surviving fraction [10]: 0.6 | K (Bos taurus): 10100 M⁻¹ | Du (Ehrlich [6]): 0.0303 | Partition coefficient [12]: 1897 | Relative activity (Ehrlich [8]): 16.83 | solubility [11]: 1460 µg/mL (≈ 6.4 mM) | Du (Ehrlich [9]): 0.0481

Cc1cc2c(o1)c(C)cc1c(C)cc(=O)n(C)c12
Relative activity (Ehrlich [1]): 77.6 | Surviving fraction [10]: 0.69 | K (Bos taurus): 11700 M⁻¹ | pIC50 (Ehrlich [3]): 5.63 | Relative activity (Ehrlich [4]): 1 | Relative activity (Ehrlich [5]): 1 | Du (Ehrlich [6]): 0.803 | Partition coefficient [12]: 163.5 | pIC50 (Ehrlich [7]): 5.87 | Relative activity (Ehrlich [8]): 461 | solubility [11]: 4700 µg/mL (≈ 19.5 mM) | Du (Ehrlich [9]): 0.9
